Source: patent publication US20230263792A1, “USE OF 2,3,5-SUBSTITUTED THIOPHENE COMPOUND FOR PREVENTING, ALLEVIATION, OR TREATING MASTOCYTOSIS” (PHAROS IBIO CO., LTD, priority 2020, published 2023)

Experiments:
Experiment in all cases: Kinase binding assay (Kd, qPCR detection)
KIT (D816H) = biological target: T1, KIT (D816H) (Homo sapiens, UniProt P10721, D816H)
T1 construct: T7 phage fusion or DNA label for qPCR detection; made in house; host or cells: T7 phage in E. coli BL21-derived host, or HEK-293 cells (both named)
Protocol: (§1) A kinase-tagged T7 phage strain was prepared from an E. coli host derived from a BL21 strain. E. coli was grown in log-phase, infected with T7 phage, and then incubated with shaking at 32° C. until lysis. The lysates were centrifuged and filtered to remove cell debris. Thereafter, the kinase produced in HEK-293 cells was labeled with DNA for qPCR detection. Streptavidin-coated magnetic beads were treated with biotinylated small molecule ligand for 30 minutes at room temperature to produce affinity resins for kinase assay. The liganded beads were blocked with excess biotin and washed with blocking buffer (SeaBlock(Pierce), 1% BSA, 0.05% Tween 20, 1 mM DTT) to remove unbound ligand and to reduce nonspecific binding. Binding reactions were induced by combining kinase, ligand affinity beads and PHI-101 in 1× binding buffer (20% SeaBlock, 0.17× PBS, 0.05% Tween 20, 6 mM DTT). PHI-101 was prepared as a 111X stock in 100% DMSO. The binding constant (Kd) was determined using an 11-point 3-fold compound dilution series with three DMSO control points. All compounds for Kd measurements were dispensed by acoustic transfer (non-contact dispensing) in 100% DMSO. The compounds were then diluted directly into the assays such that the final concentration of DMSO was 0.9%. All reactions were performed in polypropylene 384-well plates at a final volume of 0.02 ml. The assay plates were incubated at room temperature with shaking for 1 hour and the affinity beads were washed with wash buffer (1× PBS, 0.05% Tween 20). The beads were then re-suspended in elution buffer (1× PBS, 0.05% Tween 20, 0.5 μM non-biotinylated affinity ligand) and incubated at room temperature with shaking for 30 minutes. The kinase concentration in the eluates was measured by qPCR.
(§2) 11-point 3-fold serial dilutions of each test compound were prepared in 100% DMSO at 100×final test concentration and then diluted to 1× in the assay (final DMSO concentration=1%). Most Kd values were determined using a compound top concentration=30,000 nM. If the initial Kd determined was <0.5 nM (lowest concentration tested), the measurement was repeated with a serial dilution starting at a lower top concentration.
(§3) The Kd value of c-kit protein was calculated with a standard dose-response curve (Equation 1) using the Hill equation.
(§4) The Hill Slope was set to −1. Curves were fitted using a non-linear least square fit with the Levenberg-Marquardt algorithm.

KIT (A829P) = biological target: T2, KIT (A829P) (Homo sapiens, UniProt P10721, A829P)
T2 construct: T7 phage fusion or DNA label for qPCR detection; made in house; host or cells: T7 phage in E. coli BL21-derived host, or HEK-293 cells (both named)
Protocol: as §1, §2, §3, §4

KIT (V559D, T670I) = biological target: T3, KIT (V559D, T670I) (Homo sapiens, UniProt P10721, T670I/V559D)
T3 construct: T7 phage fusion or DNA label for qPCR detection; made in house; host or cells: T7 phage in E. coli BL21-derived host, or HEK-293 cells (both named)
Protocol: as §1, §2, §3, §4

KIT (D816V) = biological target: T4, KIT (D816V) (Homo sapiens, UniProt P10721, D816V)
T4 construct: T7 phage fusion or DNA label for qPCR detection; made in house; host or cells: T7 phage in E. coli BL21-derived host, or HEK-293 cells (both named)
Protocol: as §1, §2, §3, §4

KIT (V559D, V654A) = biological target: T5, KIT (V559D, V654A) (Homo sapiens, UniProt P10721, V559D/V654A)
T5 construct: T7 phage fusion or DNA label for qPCR detection; made in house; host or cells: T7 phage in E. coli BL21-derived host, or HEK-293 cells (both named)
Protocol: as §1, §2, §3, §4

KIT (L576P) = biological target: T6, KIT (L576P) (Homo sapiens, UniProt P10721, L576P)
T6 construct: T7 phage fusion or DNA label for qPCR detection; made in house; host or cells: T7 phage in E. coli BL21-derived host, or HEK-293 cells (both named)
Protocol: as §1, §2, §3, §4

KIT (V559D) = biological target: T7, KIT (V559D) (Homo sapiens, UniProt P10721, V559D)
T7 construct: T7 phage fusion or DNA label for qPCR detection; made in house; host or cells: T7 phage in E. coli BL21-derived host, or HEK-293 cells (both named)
Protocol: as §1, §2, §3, §4

T4 sequence (P10721 26-976 D816V): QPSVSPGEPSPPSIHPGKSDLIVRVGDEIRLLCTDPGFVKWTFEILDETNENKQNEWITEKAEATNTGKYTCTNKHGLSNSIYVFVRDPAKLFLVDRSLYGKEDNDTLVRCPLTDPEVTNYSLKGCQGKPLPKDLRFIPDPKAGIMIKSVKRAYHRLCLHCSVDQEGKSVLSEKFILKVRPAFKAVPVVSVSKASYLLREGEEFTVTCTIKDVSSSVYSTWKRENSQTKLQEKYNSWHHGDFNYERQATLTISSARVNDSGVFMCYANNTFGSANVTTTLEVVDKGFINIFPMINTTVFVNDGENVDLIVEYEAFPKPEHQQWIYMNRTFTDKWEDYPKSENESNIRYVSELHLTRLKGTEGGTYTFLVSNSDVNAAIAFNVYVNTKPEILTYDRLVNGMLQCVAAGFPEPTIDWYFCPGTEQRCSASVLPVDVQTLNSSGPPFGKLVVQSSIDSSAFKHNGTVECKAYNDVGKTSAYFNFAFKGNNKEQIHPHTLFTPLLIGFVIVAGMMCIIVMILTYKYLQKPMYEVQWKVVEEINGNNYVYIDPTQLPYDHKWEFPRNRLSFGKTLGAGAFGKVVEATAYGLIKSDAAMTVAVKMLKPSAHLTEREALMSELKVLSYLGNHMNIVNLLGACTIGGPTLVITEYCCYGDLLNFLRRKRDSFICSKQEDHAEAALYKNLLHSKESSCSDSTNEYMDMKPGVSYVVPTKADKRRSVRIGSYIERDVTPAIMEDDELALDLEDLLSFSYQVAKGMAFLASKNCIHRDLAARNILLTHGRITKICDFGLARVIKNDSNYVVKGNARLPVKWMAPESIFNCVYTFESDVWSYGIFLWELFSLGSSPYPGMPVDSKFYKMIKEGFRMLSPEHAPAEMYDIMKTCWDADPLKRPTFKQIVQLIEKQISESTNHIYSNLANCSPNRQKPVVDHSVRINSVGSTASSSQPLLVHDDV
T7 sequence (P10721 26-976 V559D): as the sequence (P10721 26-976 D816V) above, with V534D, V791D counted along it
T5 sequence (P10721 26-976 V559D/V654A): as the sequence (P10721 26-976 D816V) above, with V534D, V629A, V791D counted along it
T6 sequence (P10721 26-976 L576P): as the sequence (P10721 26-976 D816V) above, with L551P, V791D counted along it
T1 sequence (P10721 26-976 D816H): as the sequence (P10721 26-976 D816V) above, with V791H counted along it
T2 sequence (P10721 26-976 A829P): as the sequence (P10721 26-976 D816V) above, with V791D, A804P counted along it
T3 sequence (P10721 26-976 V559D/T670I): as the sequence (P10721 26-976 D816V) above, with V534D, T645I, V791D counted along it

Kd (KIT (D816H)): 4.8 nM
Kd (KIT (A829P)): 1.3 nM
Kd (KIT (V559D, T670I)): 27 nM
Kd (KIT (D816V)): 2.1 nM
Kd (KIT (V559D, V654A)): 26 nM
Kd (KIT (L576P)): 39 nM
Kd (KIT (V559D)): 16 nM
Structure (SMILES): NC(=O)Nc1cc(C#Cc2cccc(F)c2)sc1C(=O)N[C@H]1CCCNC1 [PHI-101]
